How the values were obtained:
[1] = tested on: Ras farnesylation in the v-ras cell line; assay: In vivo ras farnesylation assay (v-ras cell line); assay type: cell-based; details: v-ras cells; 4 h pretreatment at 37° C., then 20 h labelling; read-out: IC50, Inhibition of Ras Farnesylation in the v-ras cell line
Experimental: In vivo ras farnesylation assay
The cell line used in this assay was the v-ras line, which expressed vital Ha-ras p21. The assay was performed essentially as described in DeClue, J. E. et. al., Cancer Research 51, 712-717, (1991). Cells in 10 cm dishes at 50-75% confluency were treated with the test compound (final concentration of solvent, methanol or dimethyl sulfoxide, was 0.1%). After 4 hours at 37° C., the cells were labelled in 3 ml methionine-free DMEM supplemeted with 10% regular DMEM, 2% fetal bovine serum and 400 μCi ^35 S!methionine (1000 Ci/mmol). After an additional 20 hours, the cells were lysed in 1 ml lysis buffer (1% NP40/20 mMHEPES, pH 7.5/5 mM MgCl2 /1 mM DTT/10 μg/ml aprotinen/2 μg/ml leupeptin/2 μg/ml antipain/0.5 mM PMSF) and the lysates cleared by centrifugation at 100,000×g for 45 min. Aliqouts of lysates containing equal numbers of acid-precipitable counts were bought to 1 ml with IP buffer (lysis buffer lacking DTT) and immunoprecipitated with the ras-specific monoclonal antibody Y13-259 (Furth, M. E. et. al., J. Virol. 43, 294-304, (1982)). Following a 2 hour antibody incubation at 4° C., 200 μl of a 25% suspension of protein A-Sepharose coated with rabbit anti rat IgG was added for 45 min. The immunoprecipitates were washed four times with IP was buffer ([…] HEPES, pH 7.5/1 mM EDTA/ 1% Triton X-100.0.5% deoxycholate/0.1%/SDS/0.1M NaCl) boiled in SDS-PAGE sample buffer and loaded on 13% acrylamide gels. When the dye front reached the bottom, the gel was fixed, soaked in Enlightening, dried and autoradiographed. The intensities of the bands corresponding to farnesylated and nonfarnesylated ras proteins were compared to determine the percent inhibition of farnesyl transfer to protein.

[2] = molecular target: recombinant human farnesyl transferase (Homo sapiens, UniProt P49354+P49356); assay: In vitro inhibition of ras farnesyl transferase; assay type: biochemical; details: read-out: ID50, Inhibition of RAS farnesylation (concentration which gives 50% inhibition of FTase)
Experimental: In vitro inhibition of ras farnesyl transferase
The assay was conducted as described in Pompliano, et. al., Biochemistry 31, 3800 (1992) with the exception of utilizing recombinant human farnesyl transferase in place of the partially purified bovine enzyme described therein.

EMG-CoA reductase = details: cited from earlier work

CCCC[C@H](/C=C/[C@@H](NC[C@@H](N)CS)[C@@H](C)CC)C(=O)N[C@@H](CCSC)C(=O)OC [5(S)-2(R)-amino-3-mercaptopropylamino!-6(S)-methyl-2(R)-n-butyl-3,4-E-octenoyl-methionine, methyl ester]
IC50 [1]: 1000 nM

CC[C@H](C)[C@@H](/C=C/[C@@H](Cc1ccccc1)C(=O)N[C@@H](CCSC)C(=O)OC)NC[C@@H](N)CS [5(S)-2(R)-amino-3-mercaptopropylamino!-6(S)-methyl-2(R)-benzyl-3,4-E-octenoyl-methionine, methyl ester]
IC50 [1]: 1000 nM

CC[C@H](C)[C@@H](/C=C/[C@H](C(=O)N[C@@H](CCSC)C(=O)O)C(C)C)NC[C@@H](N)CS [5(S)-2(R)-amino-3-mercaptopropylamino!-6(S)-methyl-2(R)-i-propyl-3,4-E-octenoyl-methionine]
IC50 [2]: 20 nM

CCCC[C@H](/C=C/[C@@H](NC[C@@H](N)CS)[C@@H](C)CC)C(=O)N[C@@H](CCO)C(=O)O [5(S)-2(R)-amino-3-mercaptopropyl-amino!-6(S)-methyl-2(R)-n-butyl-3,4-E-octenoyl-homoserine]
IC50 [2]: 1.5 nM

CCCC[C@H](/C=C/[C@@H](NC[C@@H](N)CS)[C@@H](C)CC)C(=O)N[C@@H](CCSC)C(=O)O [5(S)-2(R)-amino-3-mercaptopropyl-amino!-6(S)-methyl-2(R)-n-butyl-3,4-E-octenoyl-methionine]
IC50 [2]: 2.5 nM

CC(C)[C@H](/C=C/[C@@H](NC[C@@H](N)CS)C(C)C)C(=O)N[C@H]1CCOC1=O [5(S)-2(R)-amino-3-mercaptopropylamino!-6-methyl-2(R)-i-propyl-3,4-E-heptenoyl-homoserine lactone]
IC50 [1]: 1000 nM

CC(C)[C@H](/C=C/[C@@H](NC[C@@H](N)CS)C(C)C)C(=O)N[C@@H](CCO)C(=O)O [5(S)-2(R)-amino-3-mercaptopropylamino!-6-methyl-2(R)-i-propyl-3,4-E-heptenoyl-homoserine]
IC50 [2]: 5 nM

CC[C@H](C)C(=O)O[C@H]1C[C@@H](C)C=C2C=C[C@H](C)[C@H](CC[C@@H]3C[C@@H](O)CC(=O)O3)[C@H]21 [lovastatin]
inhibition of EMG-CoA reductase (EMG-CoA reductase): inhibit EMG-CoA reductase

CC[C@H](C)[C@@H](/C=C/[C@@H](Cc1ccccc1)C(=O)N[C@H]1CCOC1=O)NC[C@@H](N)CS [5(S)-2(R)-amino-3-mercaptopropylamino!-6(S)-methyl-2(R)-benzyl-3,4-E-octenoyl-homoserine lactone]
IC50 [1]: 5000 to 10000 nM

CC[C@H](C)C(=O)O[C@H]1CCC=C2C=C[C@H](C)[C@H](CC[C@@H]3C[C@@H](O)CC(=O)O3)[C@H]21 [compactin]
inhibition of EMG-CoA reductase (EMG-CoA reductase): inhibit EMG-CoA reductase

CC[C@H](C)[C@@H](/C=C/[C@H](C(=O)N[C@H]1CCOC1=O)C(C)C)NC[C@@H](N)CS [5(S)-2(R)-amino-3-mercaptopropylamino!-6(S)-methyl-2(R)-i-propyl-3,4-E-octenoyl-homoserine lactone]
IC50 [1]: 1000 to 2500 nM

CC[C@H](C)[C@@H](/C=C/[C@@H](Cc1ccccc1)C(=O)N[C@@H](CCSC)C(=O)O)NC[C@@H](N)CS [5(S)-2(R)-amino-3-mercaptopropylamino!-6(S)-methyl-2(R)-benzyl-3,4-E-octenoyl-methionine]
IC50 [2]: 1.9 nM

CCC[C@H](/C=C/[C@@H](NC[C@@H](N)CS)[C@@H](C)CC)C(=O)N[C@@H](CCO)C(=O)O [5(S)-2(R)-amino-3-mercaptopropylamino!-6(S)-methyl-2(R)-n-propyl-3,4-E-octenoyl-homoserine]
IC50 [2]: 4 nM

CC[C@H](C)[C@@H](/C=C/[C@H](C(=O)N[C@@H](CCSC)C(=O)OC)C(C)C)NC[C@@H](N)CS [5(S)-2(R)-amino-3-mercaptopropylamino!-6(S)-methyl-2(R)-i-propyl-3,4-E-octenoyl-methionine, methyl ester]
IC50 [1]: 100 nM

CCC[C@H](/C=C/[C@@H](NC[C@@H](N)CS)[C@@H](C)CC)C(=O)N[C@H]1CCOC1=O [5(S)-2(R)-amino-3-mercaptopropylamino!-6(S)-methyl-2(R)-n-propyl-3,4-E-octenoyl-homoserine lactone]
IC50 [1]: 5000 nM

CC[C@H](C)[C@@H](/C=C/[C@H](C(=O)N[C@@H](CCO)C(=O)O)C(C)C)NC[C@@H](N)CS [5(S)-2(R)-amino-3-mercaptopropyl-amino!-6(S)-methyl-2(R)-i-propyl-3,4-E-octenoyl-homoserine]
IC50 [2]: 3.5 nM
